The text below walks through data of publication PMC8703934, “Lytic Polysaccharide Monooxygenase from Talaromyces amestolkiae with an Enigmatic Linker-like Region: The Role of This Enzyme on Cellulose Saccharification” (International Journal of Molecular Sciences, 2021).

One test concerns the target T1, TamAA9A-CD (Talaromyces amestolkiae, UniProt A0A364LE17).
T1 construct: gene BHQ10_010049; native signal peptide (removed), no tag mentioned; secreted from Pichia pastoris X-33; theoretical 24 kDa, about 30 kDa glycosylated; copper-saturated; mature N-terminus HGYVQN from primer
Description: spectrophotometric oxidation to coerulignone at […] nm, Michaelis-Menten fit. The settings on record: 2 mM H2O2 as co-substrate; copper-saturated enzyme; 100 mM sodium phosphate pH 6; substrate range 1.25-100 mM. It is filed as biochemical.

A further test has as its target T2, TamAA9A-CBM (Talaromyces amestolkiae, UniProt A0A364LE17).
T2 construct: gene BHQ10_010049; native signal peptide (removed); secreted from Pichia pastoris X-33; theoretical 34 kDa, 75-100 kDa glycosylated; copper-saturated; with Beta-glucosidase BGL-2 (CBM1 domain only)
The test is described as above. It is filed as biochemical. The settings on record: 2 mM H2O2 as co-substrate; copper-saturated enzyme; 100 mM sodium phosphate pH 6; substrate range 1.25-100 mM; printed kcat/Km (0.003) does not match printed kcat and Km.

Usually Km stands for the substrate concentration at which the rate is half of its maximum.

T1 sequence (A0A364LE17 entry or part of it): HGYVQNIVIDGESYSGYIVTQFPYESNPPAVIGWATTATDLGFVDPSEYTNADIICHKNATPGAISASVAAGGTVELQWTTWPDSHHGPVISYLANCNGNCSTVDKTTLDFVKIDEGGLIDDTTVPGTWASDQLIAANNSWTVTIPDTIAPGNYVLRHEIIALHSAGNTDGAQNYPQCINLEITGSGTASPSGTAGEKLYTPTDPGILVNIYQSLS
T2 sequence (A0A364LE17 entry or part of it): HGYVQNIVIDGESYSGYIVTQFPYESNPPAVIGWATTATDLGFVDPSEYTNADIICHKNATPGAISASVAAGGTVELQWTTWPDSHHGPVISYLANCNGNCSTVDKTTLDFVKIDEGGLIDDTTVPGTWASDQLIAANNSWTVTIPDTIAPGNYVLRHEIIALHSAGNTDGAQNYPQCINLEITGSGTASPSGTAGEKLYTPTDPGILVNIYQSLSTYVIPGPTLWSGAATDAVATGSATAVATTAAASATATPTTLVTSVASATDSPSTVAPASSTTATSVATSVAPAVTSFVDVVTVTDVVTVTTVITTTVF

Turning to `COc1cccc(OC)c1O` [2,6-DMP, 2,6-dimethoxyphenol], the Km at TamAA9A-CD worked out at 87.7 ± 0.7 mM; at TamAA9A-CBM it was 85.68 ± 0.7 mM.
